Legend:
Experiment in all cases: Kinase profiling screen (radioactive filter-binding assay)
Format in all cases: biochemical
ASK1 = target: T1, ASK1 (Homo sapiens, UniProt Q99683); conditions: 100 μM compound, 50 μM ATP; read-out: Kinase activity, % of activity in the absence of inhibitor
T1 sequence (Q99683 1-1374): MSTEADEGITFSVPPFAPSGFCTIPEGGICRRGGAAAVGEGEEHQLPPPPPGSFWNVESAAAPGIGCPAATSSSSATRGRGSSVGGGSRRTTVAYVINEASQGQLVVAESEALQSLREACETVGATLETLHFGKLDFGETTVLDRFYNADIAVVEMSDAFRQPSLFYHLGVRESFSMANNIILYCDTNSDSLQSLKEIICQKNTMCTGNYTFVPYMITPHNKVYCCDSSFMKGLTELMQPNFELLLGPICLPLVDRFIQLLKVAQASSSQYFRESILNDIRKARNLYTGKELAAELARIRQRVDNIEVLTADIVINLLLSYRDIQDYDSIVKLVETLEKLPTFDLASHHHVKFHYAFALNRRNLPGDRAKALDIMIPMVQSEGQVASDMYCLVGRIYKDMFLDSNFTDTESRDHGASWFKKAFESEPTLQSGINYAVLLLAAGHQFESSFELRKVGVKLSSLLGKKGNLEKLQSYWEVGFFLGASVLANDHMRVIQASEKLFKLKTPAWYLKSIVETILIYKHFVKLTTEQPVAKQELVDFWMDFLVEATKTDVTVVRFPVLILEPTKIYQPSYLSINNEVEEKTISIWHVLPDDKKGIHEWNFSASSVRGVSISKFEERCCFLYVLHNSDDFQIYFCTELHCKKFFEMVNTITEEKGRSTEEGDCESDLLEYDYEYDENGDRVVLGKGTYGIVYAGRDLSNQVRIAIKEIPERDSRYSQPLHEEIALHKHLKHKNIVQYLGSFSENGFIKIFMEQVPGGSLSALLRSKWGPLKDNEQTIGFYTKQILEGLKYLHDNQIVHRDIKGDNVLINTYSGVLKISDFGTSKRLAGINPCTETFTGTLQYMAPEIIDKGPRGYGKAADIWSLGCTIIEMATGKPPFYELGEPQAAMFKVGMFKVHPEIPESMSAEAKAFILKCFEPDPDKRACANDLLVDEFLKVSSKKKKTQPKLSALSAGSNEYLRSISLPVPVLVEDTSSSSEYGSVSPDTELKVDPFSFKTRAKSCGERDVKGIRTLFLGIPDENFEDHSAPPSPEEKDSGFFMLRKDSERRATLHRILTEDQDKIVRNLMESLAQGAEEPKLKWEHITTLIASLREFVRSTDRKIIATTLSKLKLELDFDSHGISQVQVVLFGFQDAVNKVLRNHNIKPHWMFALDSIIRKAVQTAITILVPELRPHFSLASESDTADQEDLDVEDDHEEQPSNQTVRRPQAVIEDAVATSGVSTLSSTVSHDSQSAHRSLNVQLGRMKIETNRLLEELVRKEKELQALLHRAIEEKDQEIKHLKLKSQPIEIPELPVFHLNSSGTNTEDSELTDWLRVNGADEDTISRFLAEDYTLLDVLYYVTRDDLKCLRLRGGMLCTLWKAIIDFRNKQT
In short: (§1)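 CoA, dpCoA and ADP were each tested in vitro, in duplicate, at 100 μM final concentration as part of a 117-kinase panel. Recombinant kinases were used with model substrates and optimal ATP concentrations.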

BRSK1 = target: T2, BRSK1 (Homo sapiens, UniProt Q8TDC3); conditions: 100 μM compound, 20 μM ATP; read-out: Kinase activity, % of activity in the absence of inhibitor
T2 sequence (Q8TDC3 1-778): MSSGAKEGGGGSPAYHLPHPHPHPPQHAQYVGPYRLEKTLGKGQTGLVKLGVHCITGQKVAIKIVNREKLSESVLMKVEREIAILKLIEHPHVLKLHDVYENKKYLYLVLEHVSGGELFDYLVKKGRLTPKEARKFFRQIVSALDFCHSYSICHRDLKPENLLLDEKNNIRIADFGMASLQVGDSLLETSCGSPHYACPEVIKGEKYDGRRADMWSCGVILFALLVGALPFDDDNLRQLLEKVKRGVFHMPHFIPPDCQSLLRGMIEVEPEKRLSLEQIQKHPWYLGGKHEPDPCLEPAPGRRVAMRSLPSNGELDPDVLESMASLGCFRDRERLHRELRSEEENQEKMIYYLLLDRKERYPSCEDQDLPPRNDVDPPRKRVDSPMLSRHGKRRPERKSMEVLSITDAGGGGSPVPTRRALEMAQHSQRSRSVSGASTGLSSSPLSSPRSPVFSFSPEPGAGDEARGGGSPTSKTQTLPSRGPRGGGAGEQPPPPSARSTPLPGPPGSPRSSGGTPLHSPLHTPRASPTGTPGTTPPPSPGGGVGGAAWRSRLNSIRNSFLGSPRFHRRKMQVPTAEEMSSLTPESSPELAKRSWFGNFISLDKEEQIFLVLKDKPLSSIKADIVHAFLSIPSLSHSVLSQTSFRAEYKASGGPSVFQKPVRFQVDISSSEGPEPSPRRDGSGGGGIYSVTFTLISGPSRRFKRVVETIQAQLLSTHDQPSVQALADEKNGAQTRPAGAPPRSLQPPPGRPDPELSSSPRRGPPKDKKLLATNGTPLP
In short: as §1

CK2α = CK2α (Homo sapiens, UniProt P68400); conditions: 100 μM compound, 5 μM ATP; read-out: Kinase activity, % of activity in the absence of inhibitor
In short: as §1

PAK4 = PAK4 (Homo sapiens, UniProt O96013); conditions: 100 μM compound, 5 μM ATP; read-out: Kinase activity, % of activity in the absence of inhibitor
In short: as §1

PAK4, sequence (O96013 whole entry): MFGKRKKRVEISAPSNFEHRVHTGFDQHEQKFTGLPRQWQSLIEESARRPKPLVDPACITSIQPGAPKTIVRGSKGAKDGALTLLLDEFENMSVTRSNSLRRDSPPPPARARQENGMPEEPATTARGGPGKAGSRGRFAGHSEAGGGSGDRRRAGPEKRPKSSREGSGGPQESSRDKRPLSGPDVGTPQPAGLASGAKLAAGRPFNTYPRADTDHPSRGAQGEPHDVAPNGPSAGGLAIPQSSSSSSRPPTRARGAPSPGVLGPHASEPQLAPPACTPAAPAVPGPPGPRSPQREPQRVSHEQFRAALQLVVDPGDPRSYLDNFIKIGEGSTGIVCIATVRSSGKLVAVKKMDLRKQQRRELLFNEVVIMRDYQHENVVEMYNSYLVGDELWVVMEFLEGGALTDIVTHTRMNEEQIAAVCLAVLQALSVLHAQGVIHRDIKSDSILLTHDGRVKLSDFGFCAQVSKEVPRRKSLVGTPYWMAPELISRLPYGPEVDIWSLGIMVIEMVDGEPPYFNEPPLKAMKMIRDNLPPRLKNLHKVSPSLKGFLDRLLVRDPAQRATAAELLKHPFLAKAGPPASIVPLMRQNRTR
CK2α, sequence (P68400 whole entry): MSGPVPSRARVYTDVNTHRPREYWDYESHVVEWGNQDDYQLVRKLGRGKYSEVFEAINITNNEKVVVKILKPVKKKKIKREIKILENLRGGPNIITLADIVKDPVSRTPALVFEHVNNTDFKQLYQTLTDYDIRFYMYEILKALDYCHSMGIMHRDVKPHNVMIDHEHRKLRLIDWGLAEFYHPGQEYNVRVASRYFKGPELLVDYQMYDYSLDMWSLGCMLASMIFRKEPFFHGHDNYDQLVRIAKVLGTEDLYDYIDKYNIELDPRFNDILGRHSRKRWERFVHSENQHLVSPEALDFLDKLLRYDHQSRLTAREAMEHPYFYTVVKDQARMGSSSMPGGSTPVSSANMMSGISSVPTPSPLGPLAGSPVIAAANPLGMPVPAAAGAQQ

SMILES	activity at 100 µM (ASK1) [%]	activity at 100 µM (BRSK1) [%]	activity at 100 µM (CK2α) [%]	activity at 100 µM (PAK4) [%]
CC(C)(COP(=O)(O)OP(=O)(O)OC[C@H]1O[C@@H](n2cnc3c(N)ncnc32)[C@H](O)[C@@H]1OP(=O)(O)O)[C@@H](O)C(=O)NCCC(=O)NCCS [CoA, Coenzyme A]	129	110	80.1	69.9
CC(C)(COP(=O)(O)OP(=O)(O)OCC1OC(n2cnc3c(N)ncnc32)C(O)C1O)C(O)C(=O)NCCC(=O)NCCS (stereo not drawn) [dpCoA, dephospho-CoA]	88.6	96.4	39.8	75.9
Nc1ncnc2c1ncn2C1OC(COP(=O)(O)OP(=O)(O)O)C(O)C1O (stereo not drawn) [ADP]	70.2	42.8	5.4	73.8

Source: publication PMC6812009, “Covalent Aurora A regulation by the metabolic integrator coenzyme A” (Redox Biology, 2019)
